From US5149779A, “Humoral hypercalcemic factor antagonists” (Merck & Co., Inc., priority 1990, dated 1992)

Target: T1, human osteosarcoma cell line, B10 (Homo sapiens, UniProt Q03431)
T1 construct: analyzed in a human osteosarcoma cell line, B10; endogenous in cells; host or cells: human osteosarcoma cell line B10
T1 sequence (Q03431 27-593): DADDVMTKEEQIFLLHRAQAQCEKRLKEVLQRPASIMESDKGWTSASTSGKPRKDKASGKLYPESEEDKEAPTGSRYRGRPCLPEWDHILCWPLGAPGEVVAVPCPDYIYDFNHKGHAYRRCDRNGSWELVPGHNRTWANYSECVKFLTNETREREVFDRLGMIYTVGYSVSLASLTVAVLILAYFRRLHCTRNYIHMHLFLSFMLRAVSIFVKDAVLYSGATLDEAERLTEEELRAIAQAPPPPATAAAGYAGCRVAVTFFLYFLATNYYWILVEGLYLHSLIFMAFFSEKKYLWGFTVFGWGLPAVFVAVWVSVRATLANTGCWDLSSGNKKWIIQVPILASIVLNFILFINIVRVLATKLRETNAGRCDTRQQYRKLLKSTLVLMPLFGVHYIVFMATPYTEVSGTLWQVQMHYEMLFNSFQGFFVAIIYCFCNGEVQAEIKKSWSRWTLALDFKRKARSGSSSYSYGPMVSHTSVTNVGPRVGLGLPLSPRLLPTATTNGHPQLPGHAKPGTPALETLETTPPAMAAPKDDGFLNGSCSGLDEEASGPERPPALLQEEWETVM
Assay: Human bone cell (B10) adenylate cyclase assay
Assay type: cell-based
Method: HCF analogues were analyzed in a human osteosarcoma cell line, B10, for the ability to inhibit cAMP stimulation by 1 nM [Nle^8,18,Tyr^34 ]bPTH(1-34)NH2 by the method described by R. J. Majeska et al., Endocrinol., 107: 1494 (1980).

CC[C@H](C)[C@H](NC(=O)[C@H](CC(C)C)NC(=O)[C@H](Cc1c[nH]cn1)NC(=O)[C@H](Cc1c[nH]cn1)NC(=O)[C@H](CC(C)C)NC(=O)[C@H](Cc1ccccc1)NC(=O)[C@H](Cc1ccccc1)NC(=O)[C@H](CCCNC(=N)N)NC(=O)[C@H](CCCNC(=N)N)NC(=O)[C@H](CCCNC(=N)N)NC(=O)[C@H](CC(C)C)NC(=O)[C@@H]1CC(=O)NCCCC[C@H](NC(=O)[C@@H](Cc2c[nH]c3ccccc23)NC(=O)[C@H](CC(C)C)NC(=O)[C@H](CC(=O)O)NC(=O)[C@H](Cc2c[nH]cn2)NC(=O)[C@H](CC(C)C)NC(=O)[C@@H](N)CC(C)C)C(=O)N[C@@H](CO)C(=O)N[C@@H]([C@@H](C)CC)C(=O)N[C@@H](CCC(N)=O)C(=O)N1)C(=O)N[C@@H](C)C(=O)N[C@@H](CCC(=O)O)C(=O)N[C@H](C(=O)N[C@@H](Cc1c[nH]cn1)C(=O)N[C@H](C(=O)N[C@@H](C)C(N)=O)[C@@H](C)O)[C@@H](C)CC
Ki: 3.2 ± 1 nM

CC[C@H](C)[C@H](NC(=O)[C@H](CC(C)C)NC(=O)[C@H](Cc1c[nH]cn1)NC(=O)[C@H](Cc1c[nH]cn1)NC(=O)[C@H](CC(C)C)NC(=O)[C@H](Cc1ccccc1)NC(=O)[C@H](Cc1ccccc1)NC(=O)[C@H](CCCNC(=N)N)NC(=O)[C@H](CCCNC(=N)N)NC(=O)[C@H](CCCNC(=N)N)NC(=O)[C@H](CC(C)C)NC(=O)[C@@H]1CC(=O)NCCCC[C@H](NC(=O)[C@@H](Cc2c[nH]c3ccccc23)NC(=O)[C@H](CC(C)C)NC(=O)[C@H](CC(=O)O)NC(C)=O)C(=O)N[C@@H](CO)C(=O)N[C@@H]([C@@H](C)CC)C(=O)N[C@@H](CCC(N)=O)C(=O)N1)C(=O)N[C@@H](C)C(=O)N[C@@H](CCC(=O)O)C(=O)N[C@H](C(=O)N[C@@H](Cc1c[nH]cn1)C(=O)N[C@H](C(=O)N[C@@H](C)C(N)=O)[C@@H](C)O)[C@@H](C)CC
Ki: 3.6 ± 0.8 nM
